Columns and labels:
[1] = tested on: A-549 human lung cancer cells; assay: Antitumor activity in the nude mouse tumor xenograft model (A-549); assay type: in vivo; details: A-549 s.c. xenograft in nude mice; for inhibition of A-549 tumor growth: 28-34 days, versus vehicle; for average tumor size: over a period of 28-34 days, vehicle about 600 mm^3, s.c. osmotic mini-pumps
From the text: Antitumor activity in the nude mouse tumor xenograft model—Nude mice (Charles River, Wilmington, Mass.) were maintained in accordance with the Institutional Animal Care and Use Committee (IACUC) procedures and guidelines. A-549 cells were harvested, resuspended in PBS and injected s.c. into the right and left flank (7×10^6 cells per flank) of 8 week old female nude mice as reported previously (1, 2). When tumors reached 50 to 100 mm^3, animals either were implanted s.c. with 2-week osmotic mini-pumps (Alzet 2002, Alzet, Palo Alto, Calif.). The mini-pumps were implanted on the right flank and the tumor cells on the left flank. Control animals received a saline vehicle whereas treated animals were injected with either vehicle, GGTI-2154, GGTI-2418, GGTI-2432 and GGTI-2430. The tumor volumes were determined by measuring the length (l) and the width (w) and calculating the volume (V=lw^2/2) as described previously (30, 31).

GGTase-I = GGTase-I (Homo sapiens, UniProt P49354+P53609); assay: In vitro GGTase-I inhibition ([3H]GGPP incorporation into H-Ras-CVLL); assay type: biochemical; details: Table 3, FIG. 11
Description: (§1) The in vitro inhibition assays of GGTase-1 and FTase were carried out by measuring the [^3H]GGPP and [^3H]FPP incorporated into H-Ras-CVLL and H-Ras-CVLS, respectively, as previously described.^27 The in vivo inhibition of geranylgeranylation and farnesylation was determined based on the level of inhibition of Rap1A and H-Ras processing, respectively.^10 Briefly, oncogenic H-Ras-transformed NIH 3T3 cells were treated with various concentrations of inhibitors, and the cell lysates were separated on 12.5% SDS-PAGE. The separated proteins were transferred to nitrocellulose and immunoblotted using an anti-Ras antibody (Y13-258) or an anti-Rap1A antibody (SC-65). Antibody reactions were visualized using either peroxidase-conjugated goat anti-rat IgG or goat anti-rabbit IgG and an enhanced chemiluminescence detection system. The results of those assays appear in Table 1 (FIG. 9), Table 2 (FIG. 10) and Table 3 (FIG. 11).

[2] = tested on: Rap1A processing by GGTase-I; assay: Inhibition of Rap1A processing (geranylgeranylation) in oncogenic H-Ras-transformed NIH 3T3 cells, immunoblot; assay type: cell-based; details: read-out: IC50, block of Rap1A processing by GGTase-I
Description: as §1

inhibition of GGTase-I (activity in words) (GGTase-I) | IC50 [2] | SMILES | inhibition of A-549 tumor growth [1] | average tumor size [1]
 |  | Cc1ccccc1-c1cc(NCc2cnc[nH]2)ccc1C(=O)N[C@@H](CC(C)C)C(=O)O [GGTI-2154, reference compound] | 66% | 250 mm^3
exceptional activity |  | Cc1nc[nH]c1CN1CCN(C(=O)N[C@@H](CC(C)C)C(=O)O)[C@@H](Cc2ccccc2)C1=O [GGTI-2418] | 57% | 280 mm^3
 | 300 nM | COC(=O)[C@H](CC(C)C)NC(=O)N1CCN(Cc2nc[nH]c2C)C(=O)[C@@H]1Cc1ccccc1 [GGTI-2417] |  | 
